Laboratory results reported in paper PMC5845541, “Novel Sodium Channel Inhibitor From Leeches” (Frontiers in Pharmacology, 2018).
pIC50: −log10 of the molar value. Positions of bridges follow the written chain, without caps; N, C: chain ends. Residues, ends and D or L forms follow the SMILES beside them.

Assays:
mNaV1.9 (mouse NaV1.9) = target: T1, mNaV1.9 (mouse NaV1.9) (Mus musculus, UniProt Q9R053); experiment: cell-based; details: NaV1.8-null mouse small DRG neurons, 300 nM TTX; 100-ms step to –40 mV from holding potential –110 mV; variable slope fit; room temperature; mean ± SEM; read-out: IC50 for inhibition of mNaV1.9 currents
T1 construct: Representative current traces of mNaV1.9, recorded from the NaV1.8-null mouse small DRG neurons; endogenous in cells; host or cells: small DRG neurons of NaV1.8-null mice

rNaV1.8 (rat NaV1.8) = rNaV1.8 (rat NaV1.8) (Rattus norvegicus, UniProt Q62968); experiment: cell-based
rNaV1.8 (rat NaV1.8), sequence (Q62968 whole entry): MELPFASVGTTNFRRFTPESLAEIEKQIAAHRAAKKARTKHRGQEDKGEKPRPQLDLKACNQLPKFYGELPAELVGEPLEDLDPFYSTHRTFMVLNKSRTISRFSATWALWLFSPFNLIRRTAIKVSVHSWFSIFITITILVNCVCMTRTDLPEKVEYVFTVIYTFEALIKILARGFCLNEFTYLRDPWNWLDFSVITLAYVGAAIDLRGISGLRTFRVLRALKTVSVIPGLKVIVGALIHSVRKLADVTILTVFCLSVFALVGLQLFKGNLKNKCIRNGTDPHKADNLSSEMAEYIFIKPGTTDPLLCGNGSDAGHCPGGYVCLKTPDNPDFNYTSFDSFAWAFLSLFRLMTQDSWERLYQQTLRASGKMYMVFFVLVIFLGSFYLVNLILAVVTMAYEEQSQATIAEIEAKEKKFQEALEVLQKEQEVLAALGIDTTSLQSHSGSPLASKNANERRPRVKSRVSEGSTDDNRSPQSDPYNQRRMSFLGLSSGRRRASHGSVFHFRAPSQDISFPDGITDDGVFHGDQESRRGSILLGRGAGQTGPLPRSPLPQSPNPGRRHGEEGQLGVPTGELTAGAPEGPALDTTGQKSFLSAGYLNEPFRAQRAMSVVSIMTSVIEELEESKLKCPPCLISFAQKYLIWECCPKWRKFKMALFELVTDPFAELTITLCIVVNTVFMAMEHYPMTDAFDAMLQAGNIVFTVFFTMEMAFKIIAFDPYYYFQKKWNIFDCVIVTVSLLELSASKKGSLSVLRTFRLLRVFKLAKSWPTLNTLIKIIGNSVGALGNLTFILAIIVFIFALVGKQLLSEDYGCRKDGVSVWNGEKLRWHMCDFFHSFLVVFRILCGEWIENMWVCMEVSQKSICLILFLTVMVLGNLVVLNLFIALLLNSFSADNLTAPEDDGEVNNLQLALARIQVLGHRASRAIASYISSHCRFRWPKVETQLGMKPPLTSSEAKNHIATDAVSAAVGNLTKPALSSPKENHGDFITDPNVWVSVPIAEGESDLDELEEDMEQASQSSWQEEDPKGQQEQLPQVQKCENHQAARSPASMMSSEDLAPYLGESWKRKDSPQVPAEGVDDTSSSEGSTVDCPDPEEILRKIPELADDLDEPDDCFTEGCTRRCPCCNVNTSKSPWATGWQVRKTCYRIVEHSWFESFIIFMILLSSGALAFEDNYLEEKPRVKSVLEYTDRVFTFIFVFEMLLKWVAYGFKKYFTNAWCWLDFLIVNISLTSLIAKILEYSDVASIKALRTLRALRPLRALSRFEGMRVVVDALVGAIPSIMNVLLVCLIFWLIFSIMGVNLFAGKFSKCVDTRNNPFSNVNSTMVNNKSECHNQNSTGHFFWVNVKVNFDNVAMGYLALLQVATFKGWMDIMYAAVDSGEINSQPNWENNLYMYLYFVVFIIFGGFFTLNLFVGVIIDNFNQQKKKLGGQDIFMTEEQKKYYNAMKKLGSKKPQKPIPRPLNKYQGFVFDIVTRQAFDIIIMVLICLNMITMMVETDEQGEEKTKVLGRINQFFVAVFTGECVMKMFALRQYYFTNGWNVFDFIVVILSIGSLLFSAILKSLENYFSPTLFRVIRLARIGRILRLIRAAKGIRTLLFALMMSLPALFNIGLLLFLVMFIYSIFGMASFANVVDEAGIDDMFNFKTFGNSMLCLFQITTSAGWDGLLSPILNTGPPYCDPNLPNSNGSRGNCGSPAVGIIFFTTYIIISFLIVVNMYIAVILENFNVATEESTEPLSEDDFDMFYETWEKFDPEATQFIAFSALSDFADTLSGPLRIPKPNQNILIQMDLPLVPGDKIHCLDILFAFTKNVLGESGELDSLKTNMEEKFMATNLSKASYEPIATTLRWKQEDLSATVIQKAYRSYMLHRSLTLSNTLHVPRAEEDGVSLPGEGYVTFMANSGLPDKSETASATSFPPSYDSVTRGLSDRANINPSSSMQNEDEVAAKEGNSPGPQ

T1 sequence (Q9R053 whole entry): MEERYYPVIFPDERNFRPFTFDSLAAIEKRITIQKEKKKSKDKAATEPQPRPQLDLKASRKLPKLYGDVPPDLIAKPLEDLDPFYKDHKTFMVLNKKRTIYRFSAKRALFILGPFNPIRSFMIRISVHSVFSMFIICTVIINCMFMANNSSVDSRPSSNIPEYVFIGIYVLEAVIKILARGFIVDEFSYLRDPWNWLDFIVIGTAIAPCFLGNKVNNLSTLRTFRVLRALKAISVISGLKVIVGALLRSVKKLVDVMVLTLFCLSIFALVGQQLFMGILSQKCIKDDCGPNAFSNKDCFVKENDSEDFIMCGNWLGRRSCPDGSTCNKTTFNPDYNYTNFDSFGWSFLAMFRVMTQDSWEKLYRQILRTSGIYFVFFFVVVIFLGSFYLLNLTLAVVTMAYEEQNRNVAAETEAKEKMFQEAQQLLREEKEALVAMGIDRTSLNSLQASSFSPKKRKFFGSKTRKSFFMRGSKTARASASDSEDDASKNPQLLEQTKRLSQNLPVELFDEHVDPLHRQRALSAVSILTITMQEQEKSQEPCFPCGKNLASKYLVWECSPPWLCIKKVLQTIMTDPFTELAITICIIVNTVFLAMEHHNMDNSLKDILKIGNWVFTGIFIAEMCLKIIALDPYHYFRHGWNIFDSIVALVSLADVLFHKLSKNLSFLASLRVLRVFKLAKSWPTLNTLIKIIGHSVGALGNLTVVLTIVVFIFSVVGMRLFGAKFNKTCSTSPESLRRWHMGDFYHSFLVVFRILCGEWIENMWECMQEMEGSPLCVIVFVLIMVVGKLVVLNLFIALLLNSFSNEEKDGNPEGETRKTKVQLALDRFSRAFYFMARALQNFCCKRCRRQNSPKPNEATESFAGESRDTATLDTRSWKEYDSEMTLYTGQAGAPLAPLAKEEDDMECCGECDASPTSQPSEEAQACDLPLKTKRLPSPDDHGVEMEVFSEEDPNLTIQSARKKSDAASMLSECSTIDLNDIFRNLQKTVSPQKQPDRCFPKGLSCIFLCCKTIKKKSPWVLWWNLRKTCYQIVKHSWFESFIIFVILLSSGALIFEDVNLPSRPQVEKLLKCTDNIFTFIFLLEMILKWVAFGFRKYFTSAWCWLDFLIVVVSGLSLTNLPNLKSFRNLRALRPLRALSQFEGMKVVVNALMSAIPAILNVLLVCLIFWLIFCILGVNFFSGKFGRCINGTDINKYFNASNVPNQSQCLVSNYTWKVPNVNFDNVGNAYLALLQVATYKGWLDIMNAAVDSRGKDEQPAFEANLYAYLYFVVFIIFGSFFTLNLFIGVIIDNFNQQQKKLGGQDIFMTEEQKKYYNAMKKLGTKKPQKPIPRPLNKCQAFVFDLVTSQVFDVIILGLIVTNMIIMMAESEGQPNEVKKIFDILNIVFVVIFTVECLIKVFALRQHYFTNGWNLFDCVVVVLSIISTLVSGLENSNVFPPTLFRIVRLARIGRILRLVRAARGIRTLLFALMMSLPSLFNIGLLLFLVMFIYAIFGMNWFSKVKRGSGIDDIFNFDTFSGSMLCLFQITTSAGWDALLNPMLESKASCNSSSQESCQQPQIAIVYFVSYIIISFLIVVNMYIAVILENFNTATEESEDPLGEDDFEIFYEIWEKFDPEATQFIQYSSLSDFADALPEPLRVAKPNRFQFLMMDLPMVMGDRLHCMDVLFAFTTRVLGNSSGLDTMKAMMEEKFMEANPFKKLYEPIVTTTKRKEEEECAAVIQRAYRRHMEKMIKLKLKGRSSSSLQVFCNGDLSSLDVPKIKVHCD

Compound: CC[C@H](C)[C@H](NC(=O)[C@H](CCSC)NC(=O)[C@@H]1CCCN1C(=O)[C@@H](NC(=O)[C@@H]1CSSC[C@@H]2NC(=O)[C@H](CCC(=O)O)NC(=O)[C@H](Cc3c[nH]c4ccccc34)NC(=O)[C@H](Cc3ccc(O)cc3)NC(=O)[C@H](CCC(=O)O)NC(=O)[C@H](CCCCN)NC(=O)[C@@H](NC(=O)[C@H](C)N)CSSC[C@H](NC(=O)[C@H](Cc3ccccc3)NC(=O)[C@H](CC(C)C)NC(=O)[C@H](Cc3ccccc3)NC(=O)[C@H](C)NC(=O)CNC2=O)C(=O)N[C@@H]([C@@H](C)CC)C(=O)N[C@@H](CCC(=O)O)C(=O)NCC(=O)N[C@@H]([C@@H](C)CC)C(=O)N1)C(C)C)C(N)=O [HSTX-I] (H-ACKEYWECGAFLFCIEGICVPMI-NH2; disulfide 2-14, 8-19)
- pIC50 (mNaV1.9 (mouse NaV1.9)): ~5.48
- pIC50 (rNaV1.8 (rat NaV1.8)): ~5.61
